What all share (assay): in vitro kinase assay
Assay [1] concerns the target OSR1 (Homo sapiens, UniProt O95747). The class given is biochemical.
Assay [2] has as its target RSK1 (Homo sapiens, UniProt Q15418). The class given is biochemical.
Assay [3] has as its target CAMKK2 (Homo sapiens, UniProt Q96RR4). The class given is biochemical.
In assay [4] the target is FER (Homo sapiens, UniProt P16591). The class given is biochemical.
Assay [5] concerns the target RSK2 (Homo sapiens, UniProt P51812). The class given is biochemical.
The target in assay [6] is AMPK. The class given is biochemical, Homo sapiens. The following applies: read-out: Ceritinib.

Sequence of FER (P16591 whole entry): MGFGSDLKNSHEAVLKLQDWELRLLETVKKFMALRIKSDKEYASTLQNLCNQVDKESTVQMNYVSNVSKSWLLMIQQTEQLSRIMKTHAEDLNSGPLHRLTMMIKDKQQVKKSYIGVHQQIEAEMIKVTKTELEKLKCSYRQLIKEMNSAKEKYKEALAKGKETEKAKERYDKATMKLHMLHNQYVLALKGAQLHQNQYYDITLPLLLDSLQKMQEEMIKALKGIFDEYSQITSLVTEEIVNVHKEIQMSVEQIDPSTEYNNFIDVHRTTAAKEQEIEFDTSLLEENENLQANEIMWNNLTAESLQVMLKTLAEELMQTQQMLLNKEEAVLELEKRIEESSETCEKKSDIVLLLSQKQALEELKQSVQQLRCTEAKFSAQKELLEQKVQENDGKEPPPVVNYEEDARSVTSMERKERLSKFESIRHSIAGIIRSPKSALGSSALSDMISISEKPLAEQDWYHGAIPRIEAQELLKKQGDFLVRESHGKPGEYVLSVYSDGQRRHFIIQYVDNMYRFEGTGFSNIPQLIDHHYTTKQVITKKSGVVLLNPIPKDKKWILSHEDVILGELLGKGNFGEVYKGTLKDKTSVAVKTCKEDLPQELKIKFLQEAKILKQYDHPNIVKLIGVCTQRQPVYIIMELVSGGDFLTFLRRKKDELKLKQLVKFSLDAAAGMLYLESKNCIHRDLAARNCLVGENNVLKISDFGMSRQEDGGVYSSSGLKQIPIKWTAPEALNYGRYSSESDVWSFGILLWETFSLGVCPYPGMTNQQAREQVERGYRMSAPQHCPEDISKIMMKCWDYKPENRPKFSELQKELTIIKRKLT
Sequence of RSK1 (Q15418 whole entry): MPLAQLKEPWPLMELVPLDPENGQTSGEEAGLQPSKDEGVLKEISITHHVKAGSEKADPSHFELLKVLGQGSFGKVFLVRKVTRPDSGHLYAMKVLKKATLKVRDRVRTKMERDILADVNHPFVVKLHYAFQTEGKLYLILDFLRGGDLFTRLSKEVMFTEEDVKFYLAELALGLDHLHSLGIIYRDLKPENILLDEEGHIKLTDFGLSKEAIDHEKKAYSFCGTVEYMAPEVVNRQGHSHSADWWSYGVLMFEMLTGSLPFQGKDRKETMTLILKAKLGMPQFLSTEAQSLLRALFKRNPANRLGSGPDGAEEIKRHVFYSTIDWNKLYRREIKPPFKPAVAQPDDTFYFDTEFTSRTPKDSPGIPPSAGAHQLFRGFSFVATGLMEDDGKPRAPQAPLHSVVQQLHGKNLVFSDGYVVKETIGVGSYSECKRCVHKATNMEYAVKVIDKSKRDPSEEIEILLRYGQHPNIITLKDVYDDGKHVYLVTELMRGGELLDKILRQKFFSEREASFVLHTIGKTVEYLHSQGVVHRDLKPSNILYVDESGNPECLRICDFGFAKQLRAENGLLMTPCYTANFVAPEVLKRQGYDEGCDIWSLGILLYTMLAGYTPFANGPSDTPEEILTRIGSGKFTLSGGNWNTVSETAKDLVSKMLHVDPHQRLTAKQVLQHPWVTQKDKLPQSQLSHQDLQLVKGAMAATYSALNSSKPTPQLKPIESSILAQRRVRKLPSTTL
Sequence of OSR1 (O95747 2-527): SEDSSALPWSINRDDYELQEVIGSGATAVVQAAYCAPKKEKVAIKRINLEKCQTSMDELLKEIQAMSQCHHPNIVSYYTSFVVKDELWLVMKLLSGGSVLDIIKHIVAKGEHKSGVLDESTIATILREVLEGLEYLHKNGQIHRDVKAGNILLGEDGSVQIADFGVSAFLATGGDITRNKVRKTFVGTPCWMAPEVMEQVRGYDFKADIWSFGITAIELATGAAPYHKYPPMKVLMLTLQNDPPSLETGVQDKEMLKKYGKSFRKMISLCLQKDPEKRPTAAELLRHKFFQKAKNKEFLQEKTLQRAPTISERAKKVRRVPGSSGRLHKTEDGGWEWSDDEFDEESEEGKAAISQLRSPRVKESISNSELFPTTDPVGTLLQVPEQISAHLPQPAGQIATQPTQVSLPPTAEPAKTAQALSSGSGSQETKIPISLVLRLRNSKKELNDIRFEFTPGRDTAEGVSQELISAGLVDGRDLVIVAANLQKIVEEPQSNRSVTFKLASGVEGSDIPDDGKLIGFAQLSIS
Sequence of CAMKK2 (Q96RR4 2-588): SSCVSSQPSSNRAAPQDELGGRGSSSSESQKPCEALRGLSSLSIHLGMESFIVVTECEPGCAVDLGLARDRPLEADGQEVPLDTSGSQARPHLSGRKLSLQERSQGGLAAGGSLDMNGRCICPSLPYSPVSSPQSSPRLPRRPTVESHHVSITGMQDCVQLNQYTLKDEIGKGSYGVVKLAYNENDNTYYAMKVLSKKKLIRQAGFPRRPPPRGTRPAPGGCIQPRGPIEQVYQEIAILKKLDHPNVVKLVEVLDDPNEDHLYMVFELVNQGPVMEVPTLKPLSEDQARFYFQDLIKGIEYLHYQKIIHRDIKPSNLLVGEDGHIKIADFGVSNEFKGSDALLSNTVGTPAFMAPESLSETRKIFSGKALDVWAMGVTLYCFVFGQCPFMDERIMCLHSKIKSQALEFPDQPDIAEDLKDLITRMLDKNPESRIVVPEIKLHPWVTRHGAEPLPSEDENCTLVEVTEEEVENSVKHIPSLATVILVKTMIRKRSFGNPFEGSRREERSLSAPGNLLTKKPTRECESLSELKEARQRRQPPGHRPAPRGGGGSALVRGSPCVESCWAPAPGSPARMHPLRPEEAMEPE
Sequence of RSK2 (P51812 whole entry): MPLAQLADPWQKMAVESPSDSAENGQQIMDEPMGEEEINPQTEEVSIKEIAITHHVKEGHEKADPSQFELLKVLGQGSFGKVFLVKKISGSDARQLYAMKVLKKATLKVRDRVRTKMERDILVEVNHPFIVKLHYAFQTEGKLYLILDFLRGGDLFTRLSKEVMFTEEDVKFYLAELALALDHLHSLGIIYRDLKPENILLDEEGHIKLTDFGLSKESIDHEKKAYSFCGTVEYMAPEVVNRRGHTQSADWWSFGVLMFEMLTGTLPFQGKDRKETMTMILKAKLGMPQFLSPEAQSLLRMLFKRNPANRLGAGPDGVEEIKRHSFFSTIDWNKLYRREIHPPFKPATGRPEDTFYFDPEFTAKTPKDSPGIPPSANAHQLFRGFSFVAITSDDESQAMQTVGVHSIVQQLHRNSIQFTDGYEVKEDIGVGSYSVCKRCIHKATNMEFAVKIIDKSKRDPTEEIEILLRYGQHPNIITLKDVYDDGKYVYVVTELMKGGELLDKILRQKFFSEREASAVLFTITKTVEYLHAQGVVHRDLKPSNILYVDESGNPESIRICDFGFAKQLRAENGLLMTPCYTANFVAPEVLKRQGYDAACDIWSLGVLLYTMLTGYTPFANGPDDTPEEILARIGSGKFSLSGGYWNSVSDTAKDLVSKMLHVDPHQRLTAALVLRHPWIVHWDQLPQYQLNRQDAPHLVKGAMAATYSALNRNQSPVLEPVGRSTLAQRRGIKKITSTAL

As to `Cc1cc(Nc2ncc(Cl)c(Nc3ccccc3S(=O)(=O)C(C)C)n2)c(OC(C)C)cc1C1CCNCC1` [ceritinib], the IC50 was found to be 881 nM in assay [1]; 966 nM in assay [2]; 75.3 nM in assay [3]; 11.7 nM in assay [4]; 418 nM in assay [5]; 2360 nM in assay [6].

Source of the values: article PMC5752595 (Molecular cancer therapeutics, 2017).
